US20250099458A1, “USE OF ANTI-IDIOPATHIC PULMONARY FIBROSIS DRUG NINTEDANIB IN TREATMENT OF TUBERCULOSIS” (Beijing Chest Hospital, Capital Medical University, priority 2022, published 2025)

What was measured:
[1] = system: pulmonary and splenic Mycobacterium tuberculosis (H37Rv strain); type: in vivo, C57BL/6 female mice; conditions: after 8 weeks of administration; BIBF1120 added to HRZ
[2] = system: H37Rv in J774A.1 macrophages; experiment: Macrophage intracellular bactericidal activity; type: cell-based, Mycobacterium tuberculosis; conditions: for CFU / log10 CFU: J774A.1, 72 h
Procedure: The macrophage intracellular bactericidal activity is used to evaluate the anti-tuberculosis activities of BIBF1120 alone and BIBF1120+RFP in combination. The specific operating method includes: collecting J774A.1 macrophages into a 50 ml centrifuge tube, and taking 100 μl of macrophages and 900 μl of a cell culture medium, which are added into a 1.5 ml sterile centrifuge tube for 10-fold dilution; counting under a microscope; diluting macrophages to 4*10^5/ml and gently plating the macrophages into a 48-well clear microwell plate, with 1 ml in each well; culturing in an incubator with 5% of CO2 at 37° C. for 24 h after plating; co-culturing MOI=5:1 and 2*10^6 CFU/MLH37Rv with the macrophages; rinsing 2 times with sterile PBS 4 h later to remove extracellular Mycobacterium tuberculosis, and adding a new RPMI cell culture medium; putting into an incubator with 5% of CO2 at 37° C. and culturing for 72 h. discarding RPMI in the 48-well plate 3 days later, adding 200 μl of 0.1% SDS and placing in the incubator for 5 to 10 min, and adding 800 μl of the cell culture medium into each well and mixing well; and after cell lysis, taking 100 μl from each well for 10-, 100-, 1000-, 100000-fold dilution, and inoculating 100 μl on a 7H10 solid medium, spreading it evenly with a spreader and counting CFUs three weeks later.

[3] = system: H37Rv strain; experiment: In vitro activity on Mycobacterium tuberculosis (Alamar Blue MIC); type: cell-based; conditions: H37Rv standard strain, 7H9 medium, 37° C. 7 d, Alamar Blue 24 h

SMILES	sterilizing of the spleen and the lung [1]	bacteriostatic effect administered alone ([2]; BIBF1120 alone, 25 ug/ml)	CFU ([2]; Table 1, BIBF1120 12.5 ug/ml)	log10 CFU ([2]; Table 1, BIBF1120 12.5 ug/ml)	CFU ([2]; Table 1, BIBF1120 25 ug/ml)	log10 CFU ([2]; Table 1, BIBF1120 25 ug/ml)	CFU ([2]; Table 1, BIBF1120 50 ug/ml)	log10 CFU ([2]; Table 1, BIBF1120 50 ug/ml)	CFU ([2]; Table 2, BIBF1120 25 ug/ml)	log10 CFU ([2]; Table 2, BIBF1120 25 ug/ml)	MIC [3] [µg/mL]	CFU ([2]; Table 1, RFP 2 ug/ml)	log10 CFU ([2]; Table 1, RFP 2 ug/ml)	CFU ([2]; Table 2, RFP 2 ug/ml)	log10 CFU ([2]; Table 2, RFP 2 ug/ml)
CCS(=O)(=O)O.COC(=O)c1ccc2c(c1)NC(=O)/C2=C(\Nc1ccc(N(C)C(=O)CN2CCN(C)CC2)cc1)c1ccccc1 [BIBF1120, Nintedanib]	achieves sterilizing of the spleen and the lung	no significant bacteriostatic effect	2400000	6.380	1462500	6.165	1077500	6.032	2750000	6.439	24.6	–	–	–	–
CO[C@H]1/C=C/O[C@@]2(C)Oc3c(C)c(O)c4c(O)c(c(/C=N/N5CCN(C)CC5)c(O)c4c3C2=O)NC(=O)/C(C)=C\C=C\[C@H](C)[C@H](O)[C@@H](C)[C@@H](O)[C@@H](C)[C@H](OC(C)=O)[C@@H]1C [RFP, rifampicin]	–	–	–	–	–	–	–	–	–	–	–	502500	5.701	202500	5.306
